Consider 4 compounds from patent publication US9688676B2, “Tyrosine kinase inhibitors” (PRINCIPIA BIOPHARMA INC., priority 2015, dated 2017).

Test [1] has as its target T1, BTK (Homo sapiens (Human), UniProt Q06187). The test is described as follows: BTK enzymatic activity assay (Caliper-based kinase assay). Conditions: human recombinant BTK 0.5 nM, ATP 16 μM, 3 h room temperature. In kind it is biochemical. On the procedure:
A Caliper-based kinase assay (Caliper Life Sciences, Hopkinton, Mass.) was used to measure inhibition of BTK kinase activity of a compound of the present disclosure. […] The reaction was then terminated with EDTA, final concentration 20 mM and the phosphorylated reaction product was quantified on a Caliper Desktop Profiler (Caliper LabChip 3000). […] This value is presented as the IC50.

Test [2] has as its target T1, BTK. In words: Determination of drug-kinase residence time (TR-FRET tracer competition, occupancy after washout). In kind it is binding. Conditions: 1.5 μM compound, 500 nM BTK; for % occupany at 1 h: 1 h of washout; for % occupany at 6 h: 6 h of washout; for % occupany at 24 h: 24 h of washout. On the procedure: The experiment was conducted in a buffer consisting of 50 mM Hepes pH 7.5, 10 mM MgCl2, 0.01% Triton X-100, and 1 mM EGTA.
The mixture was then diluted 5-fold by addition of 40 μL of buffer. […] In order to probe for reversibility of the kinase-compound binding interaction, a competition solution containing both a high affinity fluorescent tracer and an antibody coupled to Europium was prepared. […] The competition solution also contained 80 nM of an Anti-polyhistidine antibody coupled to Europium (Invitrogen Cat. #PV5596) which is designed to bind the polyhistidine purification tag in BTK.
It is to be expected that covalent and slow dissociating inhibitors will block binding of the tracer while rapidly dissociating non-covalent inhibitors will not. […] Data were plotted at percentage of signal obtained in the absence of competitor compound. The background signal was obtained by omission of BTK from the reaction. […] If the compound is a reversible covalent inhibitor, the tracer will bind the target as the compound dissociates from the target.
In general terms: In TR-FRET formats the signal depends on donor and acceptor labels being close together.

T1 sequence (Q06187 whole entry): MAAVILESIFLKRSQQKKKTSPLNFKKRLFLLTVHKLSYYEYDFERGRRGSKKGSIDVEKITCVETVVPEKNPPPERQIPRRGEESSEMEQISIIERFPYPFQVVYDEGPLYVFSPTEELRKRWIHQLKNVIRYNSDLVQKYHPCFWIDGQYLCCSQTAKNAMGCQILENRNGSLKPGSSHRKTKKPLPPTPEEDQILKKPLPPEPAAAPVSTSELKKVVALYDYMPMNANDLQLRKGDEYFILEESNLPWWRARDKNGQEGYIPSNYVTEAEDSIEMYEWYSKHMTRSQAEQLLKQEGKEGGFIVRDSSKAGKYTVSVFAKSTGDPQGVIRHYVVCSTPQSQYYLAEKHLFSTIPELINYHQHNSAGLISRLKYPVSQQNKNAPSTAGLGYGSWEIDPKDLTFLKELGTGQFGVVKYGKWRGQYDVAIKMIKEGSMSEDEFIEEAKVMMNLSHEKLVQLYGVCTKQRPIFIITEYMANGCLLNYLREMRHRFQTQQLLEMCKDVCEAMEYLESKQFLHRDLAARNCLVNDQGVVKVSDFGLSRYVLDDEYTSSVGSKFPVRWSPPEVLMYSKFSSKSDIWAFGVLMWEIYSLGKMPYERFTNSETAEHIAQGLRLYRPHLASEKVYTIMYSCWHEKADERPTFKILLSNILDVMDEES

What is called IC50 is the concentration that gives 50% inhibition. As for `CC(C)(C=C(C#N)C(=O)N1CCC[C@H]1Cn1c(=O)n(-c2ccc(Oc3ccccc3)cc2)c2c(N)nccc21)N1CCOCC1` [Compound 14, (S)-2-(2-((4-amino-2-oxo-3-(4-phenoxyphenyl)-2,3-dihydro-1H-imidazo[4,5-c]pyridin-1-yl)methyl)pyrrolidine-1-carbonyl)-4-methyl-4-morpholinopent-2-enenitrile], on BTK [1], the IC50 came out at 17.2 nM. Also, at BTK [2], the “% occupany at 1 h” value is reported as 91.481%, the “% occupany at 6 h” value is reported as 76.396% and the “% occupany at 24 h” value worked out at 22.922%.
On to `COC(=O)N1CCN(C(C)(C)C=C(C#N)C(=O)N2CCC[C@H]2Cn2c(=O)n(-c3ccc(Oc4ccccc4)cc3)c3c(N)nccc32)CC1` [Compound 15, (S)-methyl 4-(5-(2-((4-amino-2-oxo-3-(4-phenoxyphenyl)-2,3-dihydro-1H-imidazo[4,5-c]pyridin-1-yl)methyl)pyrrolidin-1-yl)-4-cyano-2-methyl-5-oxopent-3-en-2-yl)piperazine-1-carboxylate], for which the IC50 at BTK [1] stood at 72.3 nM. Moreover, at BTK [2], the “% occupany at 1 h” value was 91.927%, the “% occupany at 6 h” value turned out to be 85.356% and the “% occupany at 24 h” value is 50.188%.
For `CC#CC(=O)N1CCC[C@@H](n2c(=O)n(-c3ccc(Oc4ccccc4)cc3)c3c(N)nccc32)C1` [Compound 17, (R)-4-amino-1-(1-(but-2-ynoyl)piperidin-3-yl)-3-(4-phenoxyphenyl)-1H-imidazo[4,5-c]pyridin-2(3H)-one], in that order: 13.3 nM, 81.247%, 78.623% and 74.744%.
Take `CN1CCN(C(C)(C)C=C(C#N)C(=O)N2CCC[C@@H](n3c(=O)n(-c4ccc(Oc5ccccc5)cc4)c4c(N)nccc43)C2)CC1=O` [Compound 18, (R)-2-(3-(4-amino-2-oxo-3-(4-phenoxyphenyl)-2,3-dihydro-1H-imidazo[4,5-c]pyridin-1-yl)piperidine-1-carbonyl)-4-methyl-4-(4-methyl-3-oxopiperazin-1-yl)pent-2-enenitrile]: the IC50 at BTK [1] was determined as 3.7 nM. On BTK [2], the “% occupany at 1 h” value came out at 93.065%, the “% occupany at 6 h” value was 73.513% and the “% occupany at 24 h” value is given as 31.704%.
